Target: MAGL (Homo sapiens (Human), UniProt Q99685)
Test: 2-AG assay: MAGL inhibitory activity by hydrolysis of 2-arachidonoylglycerol to arachidonic acid (mass spectrometry)
Type: biochemical
Conditions: measured in 2-AG assay (footnote [b]); 8 μM 2-arachidonoylglycerol
Method: Alternatively, compounds were profiled for MAGL inhibitory activity by determining the enzymatic activity by following the hydrolysis of the natural substrate 2-arachidonoylglycerol resulting in arachidonic acid, which can be followed by mass spectrometry. This assay is hereinafter abbreviated “2-AG assay”.
A C18 SPE cartridge (G9205A) was used in an acetonitrile/water liquid setup. […] The activity of the compounds was calculated based on the ratio of intensities [arachidonic acid/d8-arachidonic acid].

MAGL, sequence (Q99685 whole entry, species assumed): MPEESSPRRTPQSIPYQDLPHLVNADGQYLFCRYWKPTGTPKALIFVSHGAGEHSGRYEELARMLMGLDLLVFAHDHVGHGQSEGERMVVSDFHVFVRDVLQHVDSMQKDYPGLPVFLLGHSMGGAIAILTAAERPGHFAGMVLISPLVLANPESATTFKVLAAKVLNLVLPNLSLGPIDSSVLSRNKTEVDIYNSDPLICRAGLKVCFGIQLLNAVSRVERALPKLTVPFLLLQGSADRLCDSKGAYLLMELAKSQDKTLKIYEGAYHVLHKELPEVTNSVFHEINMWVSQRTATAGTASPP

Row | Structure (SMILES) | IC50 [nM]
1 | O=C1CO[C@H]2CCN(C(=O)N3CC(OCc4ccc(Cl)cc4Cl)C3)C[C@H]2N1 [Example 87] | 6
2 | COc1cc(COC2CN(C(=O)N3CC[C@@H]4OCC(=O)N[C@@H]4C3)C2)ccc1C(F)(F)F [Example 88] | 5
3 | Cc1cc(OCC2CCN(C(=O)N3CC[C@@H]4OCC(=O)N[C@@H]4C3)CC2)cnc1C(F)(F)F [Example 89] | 34
4 | O=C1CO[C@H]2CCN(C(=O)N3CCC(COc4cccc(Cl)c4)C3)C[C@H]2N1 (some centres unmarked) [Example 90] | 168
5 | O=C1CO[C@H]2CCN(C(=O)N3CCC(COc4ccccc4Cl)C3)C[C@H]2N1 (some centres unmarked) [Example 91] | 99
6 | O=C1CO[C@H]2CCN(C(=O)N3CCC(Cc4ccc(C(F)(F)F)cc4F)CC3)C[C@H]2N1 [Example 92] | 14
7 | O=C1CO[C@H]2CCN(C(=O)N3CC(Oc4ccc(C(F)(F)F)cc4)C3)C[C@H]2N1 [Example 118] | 132
8 | O=C1CO[C@H]2CCN(C(=O)N3CCC(Oc4ccc(Cl)c(C(F)(F)F)c4)CC3)C[C@H]2N1 [Example 119] | 14
9 | O=C1CO[C@H]2CCN(C(=O)N3CCC(Oc4ccc(Cl)c(C5CC5)c4)CC3)C[C@H]2N1 [Example 120] | 7
10 | O=C1CO[C@H]2CCN(C(=O)N3CCC(Oc4ccc(Cl)c(N5CCOCC5)c4)CC3)C[C@H]2N1 [Example 121] | 151
11 | Cc1cc(C(F)(F)F)ccc1OC1CCN(C(=O)N2CC[C@@H]3OCC(=O)N[C@@H]3C2)CC1 [Example 122] | 8
12 | N#Cc1cc(C(F)(F)F)ccc1OC1CCN(C(=O)N2CC[C@@H]3OCC(=O)N[C@@H]3C2)CC1 [Example 123] | 82
13 | O=C1CO[C@H]2CCN(C(=O)N3CCC(Cc4nc5ccncc5o4)CC3)C[C@H]2N1 [Example 124] | 1040
14 | O=C1CO[C@H]2CCN(C(=O)N3CCCC(COc4ccc(F)cc4Cl)CC3)C[C@H]2N1 (some centres unmarked) [Example 140] | 59
15 | O=C1CO[C@H]2CCN(C(=O)N3CCCC(COc4ccc(F)cc4Cl)CC3)C[C@H]2N1 (some centres unmarked) [Example 141] | 40
16 | O=C1CO[C@H]2CCN(C(=O)N3CCCC(Cc4ccc(C(F)(F)F)cc4)CC3)C[C@H]2N1 (some centres unmarked) [Example 142] | 75
17 | O=C1CO[C@H]2CCN(C(=O)N3CCC(Oc4cc(-n5cccn5)cc(C(F)(F)F)c4)CC3)C[C@H]2N1 [Example 201] | 239
18 | O=C1CO[C@H]2CCN(C(=O)N3CCC(Cc4ccc(C(F)(F)F)cc4OCC(F)(F)F)CC3)C[C@H]2N1 [Example 202] | 54
19 | O=C1CO[C@H]2CCN(C(=O)N3CCC(Oc4cc(-n5cncn5)cc(C(F)(F)F)c4)CC3)C[C@H]2N1 [Example 203] | 871
20 | O=C1CO[C@H]2CCN(C(=O)N3CC(Oc4ccc(Cl)c(C(F)(F)F)c4)C3)C[C@H]2N1 [Example 204] | 100
21 | O=C1CO[C@H]2CCN(C(=O)N3CCC(Oc4ccc(Cl)c(-n5cccn5)c4)CC3)C[C@H]2N1 [Example 205] | 86

Row | Structure (SMILES) | IC50 [nM]
22 | O=C1CO[C@H]2CCN(C(=O)N3CCC(Oc4ccc(C(F)(F)F)c(N5CCOCC5)c4)CC3)C[C@H]2N1 [Example 206] | 23
23 | O=C1CO[C@H]2CCN(C(=O)N3CCC(Oc4ccc(Cl)c(-n5cncn5)c4)CC3)C[C@H]2N1 [Example 207] | 50
24 | O=C1CO[C@H]2CCN(C(=O)N3CCC(Oc4ccc(C(F)(F)F)c(C5CC5)c4)CC3)C[C@H]2N1 [Example 208] | 3
25 | O=C1CO[C@H]2CCN(C(=O)N3CCC(Oc4ccc(C(F)(F)F)c(-n5cccn5)c4)CC3)C[C@H]2N1 [Example 209] | 74
26 | O=C1CO[C@H]2CCN(C(=O)N3CCC(Oc4ccc(Cl)cc4)CC3)C[C@H]2N1 [Example 210] | 80
27 | O=C1CO[C@H]2CCN(C(=O)N3CCC(Cc4c(F)cc(C(F)(F)F)cc4F)CC3)C[C@H]2N1 [Example 211] | 17
28 | O=C1CO[C@H]2CCN(C(=O)N3CCC(Oc4ccc(Cl)c(-c5ccc(Cl)cc5)c4F)CC3)C[C@H]2N1 [Example 212] | 3
29 | O=C1CO[C@H]2CCN(C(=O)N3CC(Oc4ccc(C(F)(F)F)cc4Cl)C3)C[C@H]2N1 [Example 213] | 98
30 | Cc1ccc(COC2CN(C(=O)N3CC[C@@H]4OCC(=O)N[C@@H]4C3)C2)c(C(F)(F)F)c1 [Example 217] | 10
31 | COc1cccc(C(F)(F)F)c1CCC1CN(C(=O)N2CC[C@@H]3OCC(=O)N[C@@H]3C2)C1 [Example 218] | 3
32 | Cc1ccc(CCC2CN(C(=O)N3CC[C@@H]4OCC(=O)N[C@@H]4C3)C2)c(C(F)(F)F)c1 [Example 219] | 2
33 | CC(=O)c1cc(C(F)(F)F)ccc1CCC1CN(C(=O)N2CC[C@@H]3OCC(=O)N[C@@H]3C2)C1 [Example 220] | 3
34 | O=C1CO[C@H]2CCN(C(=O)N3CC(COc4cc(C(F)(F)F)cc(F)n4)C3)C[C@H]2N1 [Example 222, (4aR,8aS)-6-[3-[[6-Fluoro-4-(trifluoromethyl)-2-pyridyl]oxymethyl]azetidine-1-carbonyl]-4,4a,5,7,8,8a-hexahydropyrido[4,3-b][1,4]oxazin-3-one] | 143
35 | O=C1CO[C@H]2CCN(C(=O)N3CC(COc4ccc(C(F)(F)F)c(F)n4)C3)C[C@H]2N1 [Example 223, (4aR,8aS)-6-[3-[[6-Fluoro-5-(trifluoromethyl)-2-pyridyl]oxymethyl]azetidine-1-carbonyl]-4,4a,5,7,8,8a-hexahydropyrido[4,3-b][1,4]oxazin-3-one] | 75
36 | O=C1CO[C@H]2CCN(C(=O)N3CC(OCc4ccc(Cl)c(Cl)c4)C3)C[C@H]2N1 [Example 224] | 3
37 | O=C1CO[C@H]2CCN(C(=O)N3CC(OCc4cc(Cl)ccc4Cl)C3)C[C@H]2N1 [Example 225] | 7
38 | O=C1CO[C@H]2CCN(C(=O)N3CC(OCc4ccc(C(F)(F)F)cn4)C3)C[C@H]2N1 [Example 230] | 73
39 | Cc1cc(OC[C@@H]2CCN(C(=O)N3CC[C@@H]4OCC(=O)N[C@@H]4C3)C[C@@H]2C)cnc1C(F)(F)F [Example 231] | 5
40 | Cc1cc(OC[C@H]2CCN(C(=O)N3CC[C@@H]4OCC(=O)N[C@@H]4C3)C[C@H]2C)cnc1C(F)(F)F [Example 232] | 61
41 | O=C1CO[C@H]2CCN(C(=O)N3CC(OCc4cc(C(F)(F)F)c(C(F)(F)F)cn4)C3)C[C@H]2N1 [Example 234] | 2
42 | O=C1CO[C@H]2CCN(C(=O)N3CC(OCc4ccc(S(F)(F)(F)(F)F)cc4F)C3)C[C@H]2N1 [Example 240] | 16

Row | Structure (SMILES) | IC50 [nM]
43 | O=C1CO[C@H]2CCN(C(=O)N3CC(OCC4(c5ccc(Cl)cc5Cl)CC4)C3)C[C@H]2N1 [Example 241] | 15
44 | O=C1CO[C@H]2CCN(C(=O)N3CC(OCc4cc(C(F)(F)F)cc(Oc5ccc(F)cc5)n4)C3)C[C@H]2N1 [Example 242] | 12
45 | O=C1CO[C@H]2CCN(C(=O)N3CC(OCc4ccc(C(F)(F)F)c(Oc5ccc(F)cc5)n4)C3)C[C@H]2N1 [Example 243] | 10
46 | O=C1CO[C@H]2CCN(C(=O)N3CC(OCc4nc(-c5ccc(F)cc5)cs4)C3)C[C@H]2N1 [Example 244] | 30
47 | O=C1CO[C@H]2CCN(C(=O)N3CCC(OCc4ccc(C(F)(F)F)cc4F)(C(F)(F)F)C3)C[C@H]2N1 (some centres unmarked) [Example 245] | 1700
48 | CC1C(Oc2cc(C(F)(F)F)ccc2Br)CCN1C(=O)N1CC[C@@H]2OCC(=O)N[C@@H]2C1 (some centres unmarked) [Example 246] | 1000
49 | C[C@@H]1[C@@H](Oc2cc(C(F)(F)F)ccc2Br)CCN1C(=O)N1CC[C@@H]2OCC(=O)N[C@@H]2C1 [Example 247] | 1100
50 | C[C@H]1[C@H](Oc2cc(C(F)(F)F)ccc2Br)CCN1C(=O)N1CC[C@@H]2OCC(=O)N[C@@H]2C1 [Example 248] | 607
51 | O=C1CO[C@H]2CCN(C(=O)N3CC(OCc4ccc(C(F)(F)F)cc4C(F)(F)F)C3)C[C@H]2N1 [Example 249] | 5
52 | Cc1c(COC2CN(C(=O)N3CC[C@@H]4OCC(=O)N[C@@H]4C3)C2)cccc1C(F)(F)F [Example 250] | 8
53 | Cc1cc(OC(F)(F)F)ccc1COC1CN(C(=O)N2CC[C@@H]3OCC(=O)N[C@@H]3C2)C1 [Example 251] | 5
54 | Cc1cc(OC(F)(F)F)ccc1COC1CN(C(=O)N2CC[C@@H]3OCC(=O)N[C@@H]3C2)C1C (some centres unmarked) [Example 252] | 5
55 | Cc1c(COC2CN(C(=O)N3CC[C@@H]4OCC(=O)N[C@@H]4C3)C2C)cccc1C(F)(F)F (some centres unmarked) [Example 253] | 10
56 | O=C1CO[C@H]2CCN(C(=O)N3CCC(Oc4ccc(C(F)(F)F)cc4F)CC3)C[C@H]2N1 [Example 254] | 64
57 | O=C1CO[C@H]2CCN(C(=O)N3CCC(Oc4ccc(C(F)(F)F)c(Cl)c4)CC3)C[C@H]2N1 [Example 255] | 10
58 | O=C1CO[C@H]2CCN(C(=O)N3CC(Oc4ccc(Cl)c(C5CC5)c4)C3)C[C@H]2N1 [Example 256] | 11
59 | O=C1CO[C@H]2CCN(C(=O)N3CCC(Oc4cccc(C(F)(F)F)c4Cl)CC3)C[C@H]2N1 [Example 257] | 14
60 | O=C1CO[C@H]2CCN(C(=O)N3CC(Oc4cccc(Br)c4Cl)C3)C[C@H]2N1 [Example 258] | 48
61 | O=C1CO[C@H]2CCN(C(=O)N3CC(Oc4cccc(C5CC5)c4Cl)C3)C[C@H]2N1 [Example 259] | 15
62 | O=C1CO[C@H]2CCN(C(=O)N3CC(Oc4ccc(C(F)(F)F)c(C5CC5)c4)C3)C[C@H]2N1 [Example 260] | 18

— patent publication US11802133B2, “Heterocyclic compounds as monoacylglycerol lipase inhibitors” (Hoffmann-La Roche Inc., priority 2018, dated 2023)
